Assay results taken from patent publication US20200377561A1, “ANTIMICROBIAL PEPTIDES AND METHODS OF TREATING GRAM-NEGATIVE PATHOGEN INFECTIONS: POLAR AND NON-POLAR FACE ANALOGS” (THE REGENTS OF THE UNIVERSITY OF COLORADO, a body corporate, priority 2017, published 2020).
Where two headings read alike, the source gives them in different places. Peptide text beside a SMILES is read from it.

Legend:
[1] = Peptide hydrophobicity by RP-HPLC retention; format: physicochemical; settings: Zorbax SB-300 C8, 0.25% B/min from 10% B, 0.3 ml/min, 30° C.
Text: Retention behavior in RP-HPLC is an excellent method to represent overall peptide hydrophobicity. Retention times of peptides are highly sensitive to the conformational status of the peptides upon interaction with the hydrophobic environment of the column matrix^17,26. The non-polar faces of amphipathic alpha-helical and amphipathic cyclic beta-sheet peptides represent a preferred binding domain for interaction with the hydrophobic matrix of the reversed-phase column^27. In this study, the observed peptide hydrophobicity was determined by RP-HPLC retention time as described below and are relative hydrophobicities because they are dependent on the TFA concentration and organic solvent in the mobile phase, gradient rate, temperature, flow rate and the column used. Analytical Purification by Reversed-phase Chromatography: Analytical RP-HPLC: Column: Zorbax SB-300 C8 (150×2.1 mm ID; 5-μm particle size; 300 Å pore size). Conditions: linear AB gradient (0.25% B/min from 10% B) at a flow-rate of 0.3 ml/min, where Eluent A is 0.2% aq. TFA and Eluent B is 0.18% TFA in acetonitrile; 30° C.

[2] = system: Acinetobacter baumannii NCTC 13420; format: cell-based
Method: (§1) Bacterial strains were acquired from the American Type Culture Collection (ATCC, Virginia, USA) and the National Collection of Type Cultures (NCTC, Public Health England, Salisbury, UK). Minimum Inhibitory Concentration (MIC) of peptides versus gram-negative strains-Acinetobacter baumannii NCTC 13420, and Pseudomonas aeruginosa ATCC 27853 and gram-positive strain Staphylococcus aureus ATCC 29213, were determined by broth microdilution as per the guidelines of the Clinical and Laboratory Standards Institute (“Methods for Dilution Antimicrobial Susceptibility Tests for Bacteria That Grow Aerobically”; Approved Standard-Ninth Edition. CLSI document M07-A9, 2012). Peptides were dissolved in sterile distilled water, which was also used as the drug-free vehicle control when determining peptide MICs. Prior to use in the MIC protocol, bacterial strains were grown on Mueller Hinton agar at 37° C. in an ambient atmosphere. […] A fixed inoculum of the test microorganism (5×10^5 cells/mL) is also added to the plate. The MIC is determined as the lowest concentration of compound that inhibits visible bacterial growth following incubation at 37° C. for 16-20 hours. A difference in MIC of two-fold between experimental replicates is considered to be within the normal variability of this protocol.

[3] = system: Staphylococcus aureus ATCC 29213; format: cell-based
Method: as §1

[4] = system: Pseudomonas aeruginosa ATCC 27853; format: cell-based
Method: as §1

Human erythrocytes = test: Haemolysis assay using human blood; format: cell-based
Method: To determine the extent of haemolytic activity (the ability to lyse red blood cells) in test peptides, a haemolysis assay was conducted using human blood (BioIVT, West Sussex, UK). Human erythrocytes were exposed to a single fixed concentration or a range of concentrations as to determine the % haemolysis (fixed concentration) or the concentration at which 50% haemolysis occurred (HC50), respectively. Prior to the assay, whole human blood was repeatedly washed in phosphate buffered saline (PBS) under cooled conditions to remove the buffy coat, plasma and cell debris. Washed erythrocytes were diluted as to achieve 1×10^8 cells/mL in PBS. Prepared human erythrocyte samples were combined with peptide at a single fixed concentration of 128 μg/mL, or a range of concentrations (two-fold dilution series) from 1000-31.25 μg/mL. Positive and negative controls containing 2% (v/v) Triton X-100 and PBS alone, respectively, were also prepared. Samples were incubated at 37° C. for 1 hour and then centrifuged to collect intact erythrocytes. Haemoglobin release was determined by recording the optical density of the supernatant at 540 nm. Optical density values were transformed to a percentage of the positive control. Results were recorded as a percentage haemolysis at 128 μg/mL, or by plotting the percentage haemolysis versus concentration and extrapolating the HC50 using linear regression analysis (Table 2 above)
The therapeutic index is a widely-accepted parameter to represent the specificity of antimicrobial peptides for prokaryotic versus eukaryotic cells. It is calculated by the ratio of hemolytic activity and antimicrobial activity (MIC) (Table 2 above); thus, larger values of therapeutic index indicate greater specificity for prokaryotic cells. With the peptides used in this study the inventors used the HC50/MIC ratio value to calculate the therapeutic index.

[5] = system: Acinetobacter baumannii NCTC 13420; format: cell-based; settings: CA-MHB supplemented with 20% human serum (v/v)
Method: Bacterial strains were acquired from the American Type Culture Collection (ATCC, Virginia, USA) and the National Collection of Type Cultures (NCTC, Public Health England, Salisbury, UK). Minimum Inhibitory Concentration (MIC) of peptides versus gram-negative strains-Acinetobacter baumannii NCTC 13420, and Pseudomonas aeruginosa ATCC 27853 and gram-positive strain Staphylococcus aureus ATCC 29213, were determined by broth microdilution as per the guidelines of the Clinical and Laboratory Standards Institute (“Methods for Dilution Antimicrobial Susceptibility Tests for Bacteria That Grow Aerobically”; Approved Standard-Ninth Edition. CLSI document M07-A9, 2012). Peptides were dissolved in sterile distilled water, which was also used as the drug-free vehicle control when determining peptide MICs. Prior to use in the MIC protocol, bacterial strains were grown on Mueller Hinton agar at 37° C. in an ambient atmosphere. […] A fixed inoculum of the test microorganism (5×10^5 cells/mL) is also added to the plate. The MIC is determined as the lowest concentration of compound that inhibits visible bacterial growth following incubation at 37° C. for 16-20 hours. A difference in MIC of two-fold between experimental replicates is considered to be within the normal variability of this protocol. […]

[6] = cation-adjusted Mueller Hinton broth, 37° C., 16-20 hours
[7] = human erythrocytes, 37° C., 1 hour

tR (relative hydrophobicity by RP-HPLC) [1]	Antimicrobial Activity MIC A. baumannii NCTC13420 ([2]; NCTC 13420)	S. Aureus ATCC22213 MIC ([3]; ATCC 29213)	P. aeruginosa ATCC27853 MIC ([4]; ATCC 27853)	SMILES	Haemolysis HC50 (Human erythrocytes; red cells of human, 1 h)	Antimicrobial Activity MIC A. baumannii NCTC13420 [2, 6]	S. Aureus ATCC22213 MIC [3, 6]	P. aeruginosa ATCC27853 MIC [4, 6]	Antimicrobial Activity MIC A. baumannii NCTC13420 plus 20% SERUM [5]	Haemolysis HC50 (Human erythrocytes; [7])
87.37 min	2 µg/mL	64 µg/mL	4 µg/mL	CC(=O)N[C@H](CCCCN)C(=O)N[C@H](CC(C)C)C(=O)N[C@H](CCCCN)C(=O)N[C@H](CCCCN)C(=O)N[C@H](CC(C)C)C(=O)N[C@H](CC(C)C)C(=O)N[C@H](CCCCN)C(=O)N[C@H](CCCCN)C(=O)N[C@H](CC(C)C)C(=O)N[C@H](CO)C(=O)N[C@H](CO)C(=O)N[C@H](C)C(=O)N[C@H](CCCCN)C(=O)N[C@H](CO)C(=O)N[C@H](CO)C(=O)N[C@H](CCCCN)C(=O)N[C@H](CC(C)C)C(=O)N[C@H](CO)C(=O)N[C@@H](C(=O)N[C@H](CC(C)C)C(=O)N[C@H](CC(C)C)C(=O)N[C@H](CCCCN)C(=O)N[C@H](CCCCN)C(=O)N[C@H](CC(C)C)C(=O)N[C@H](CCCCN)C(=O)N[C@H](CCCCN)C(N)=O)[C@H](C)O [compound 3] (HELM PEPTIDE1{[ac].[dK].[dL].[dK].[dK].[dL].[dL].[dK].[dK].[dL].[dS].[dS].[dA].[dK].[dS].[dS].[dK].[dL].[dS].[dT].[dL].[dL].[dK].[dK].[dL].[dK].[dK].[am]}$$$$V2.0)	>2000 µg/mL	–	–	–	–	–
–	2 µg/mL	128 µg/mL	2 µg/mL	CC(=O)N[C@H](CCCCN)C(=O)N[C@H](CC(C)C)C(=O)N[C@H](CCCCN)C(=O)N[C@H](CCCCN)C(=O)N[C@H](CC(C)C)C(=O)N[C@H](CC(C)C)C(=O)N[C@H](CCCCN)C(=O)N[C@H](CCCCN)C(=O)N[C@H](CC(C)C)C(=O)N[C@H](CCCCN)C(=O)N[C@H](CO)C(=O)N[C@H](C)C(=O)N[C@H](CCCCN)C(=O)N[C@H](CO)C(=O)N[C@H](CO)C(=O)N[C@H](CCCCN)C(=O)N[C@H](CC(C)C)C(=O)N[C@H](CO)C(=O)N[C@@H](C(=O)N[C@H](CC(C)C)C(=O)N[C@H](CC(C)C)C(=O)N[C@H](CO)C(=O)N[C@H](CCCCN)C(=O)N[C@H](CC(C)C)C(=O)N[C@H](CCCCN)C(=O)N[C@H](CCCCN)C(N)=O)[C@H](C)O [compound 6] (HELM PEPTIDE1{[ac].[dK].[dL].[dK].[dK].[dL].[dL].[dK].[dK].[dL].[dK].[dS].[dA].[dK].[dS].[dS].[dK].[dL].[dS].[dT].[dL].[dL].[dS].[dK].[dL].[dK].[dK].[am]}$$$$V2.0)	>2000 µg/mL	–	–	–	–	–
–	–	–	–	CC(=O)N[C@H](CCCCN)C(=O)N[C@H](CC(C)C)C(=O)N[C@H](CCCCN)C(=O)N[C@H](CCCCN)C(=O)N[C@H](CC(C)C)C(=O)N[C@H](CC(C)C)C(=O)N[C@H](CCCCN)C(=O)N[C@H](CCCCN)C(=O)N[C@H](CC(C)C)C(=O)N[C@H](CO)C(=O)N[C@H](CO)C(=O)N[C@H](C)C(=O)N[C@H](CCCCN)C(=O)N[C@H](CO)C(=O)N[C@H](CO)C(=O)N[C@H](CCCCN)C(=O)N[C@H](CC(C)C)C(=O)N[C@H](CO)C(=O)N[C@H](CO)C(=O)N[C@H](CC(C)C)C(=O)N[C@H](CC(C)C)C(=O)N[C@H](CCCCN)C(=O)N[C@H](CCCCN)C(=O)N[C@H](CC(C)C)C(=O)N[C@H](CCCCN)C(=O)N[C@H](CCCCN)C(N)=O [compound 24] (HELM PEPTIDE1{[ac].[dK].[dL].[dK].[dK].[dL].[dL].[dK].[dK].[dL].[dS].[dS].[dA].[dK].[dS].[dS].[dK].[dL].[dS].[dS].[dL].[dL].[dK].[dK].[dL].[dK].[dK].[am]}$$$$V2.0)	–	1 µg/mL	64 µg/mL	2 µg/mL	2 µg/mL	>2000 µg/mL
–	–	–	–	CC(=O)N[C@H](C)C(=O)N[C@H](CC(C)C)C(=O)N[C@H](CCCCN)C(=O)N[C@H](CCCCN)C(=O)N[C@H](CC(C)C)C(=O)N[C@H](CC(C)C)C(=O)N[C@H](CCCCN)C(=O)N[C@H](CCCCN)C(=O)N[C@H](CC(C)C)C(=O)N[C@H](CO)C(=O)N[C@H](CO)C(=O)N[C@H](C)C(=O)N[C@H](CCCCN)C(=O)N[C@H](CO)C(=O)N[C@H](CO)C(=O)N[C@H](CCCCN)C(=O)N[C@H](CC(C)C)C(=O)N[C@H](CO)C(=O)N[C@H](CO)C(=O)N[C@H](CC(C)C)C(=O)N[C@H](CC(C)C)C(=O)N[C@H](CCCCN)C(=O)N[C@H](CCCCN)C(=O)N[C@H](CC(C)C)C(=O)N[C@H](CCCCN)C(=O)N[C@H](CCCCN)C(N)=O [compound 25] (HELM PEPTIDE1{[ac].[dA].[dL].[dK].[dK].[dL].[dL].[dK].[dK].[dL].[dS].[dS].[dA].[dK].[dS].[dS].[dK].[dL].[dS].[dS].[dL].[dL].[dK].[dK].[dL].[dK].[dK].[am]}$$$$V2.0)	–	2 µg/mL	128 µg/mL	4 µg/mL	4 µg/mL	>2000 µg/mL
